From patent US20060122260A1, “Intermediates for aromatic polyketides as selective anticancer and antiviral agents” (priority 2002, published 2006)
Converted amounts (≈) assume the structure as drawn. “Also recorded” adds a separate entry of the source.

What was measured:
adenovirus = experiment: Activity testing in human virus models: adenovirus; format: cell-based; conditions: for activity against virus: adenovirus, concentrations tested 1 μM and 100 μM; for inhibition at 1 µM / inhibition at 100 µM: unidentified adenovirus, Adeno
Experimental: (§1) The results obtained from the parvovirus model encouraged us to carry out the bioactivity tests using human viruses as targets. Selected RNA- and DNA-viruses were tested; herpes simplex (HSV), adenovirus, influenza B, RS virus, cytomegalovirus (CMV), and CBV5 virus. […] The concentrations tested were 1 μM and 100 μM. The cytotoxic effect was not found using 1 μM of S2502 or S2507. Instead, 100 μM of S2502 was toxic to the cells used for CBV5 and HSV infection, and 100 μM of S2507 was toxic to the cells used for HSV infection.
(§2) S2507 and S2502 were further tested in human virus models: herpes simplex (HSV), adenovirus, influenza B, RS virus, cytomegalovirus and CBV5 virus. […] The compounds were active when administered simultaneously or before an infection (prophylactic) and half an hour after the infection. […] However, in HSV 100 μM concentration was toxic.

[1] = tested on: cells used for HSV infection; experiment: Toxicity to cells used for HSV infection; format: cell-based; conditions: 100 μM
Experimental: as §1, §2

pKa = format: physicochemical; conditions: comparable to acetic acid
influenza B = experiment: Activity testing in human virus models: influenza B; format: cell-based; conditions: for inhibition at 1 µM / inhibition at 100 µM: Influenza B virus, Influenza B; for activity against virus: influenza B, concentrations tested 1 μM and 100 μM
cytomegalovirus (CMV) = experiment: Activity testing in human virus models: cytomegalovirus; format: cell-based; conditions: for activity against virus: CMV, concentrations tested 1 μM and 100 μM; for inhibition at 1 µM / inhibition at 100 µM: Human betaherpesvirus 5, Cytomegalo
Experimental: as §1, §2

RS virus = experiment: Activity testing in human virus models: RS virus; format: cell-based; conditions: for activity against virus: RS virus, concentrations tested 1 μM and 100 μM; for inhibition at 1 µM / inhibition at 100 µM: human respiratory syncytial virus, RSV
Experimental: as §1, §2

[2] = tested on: Canine parvovirus type 2 (CPV-d); experiment: Parvovirus infectivity screening (animal virus model); format: cell-based; conditions: for antiviral activity against parvovirus (inhibition of infection of cells): drug added simultaneously with CPV, 24 h p.i.
MES-SA/Dx5 = experiment: Typical cytotoxicity screen, MES-SA/Dx5
herpes simplex (HSV) = experiment: Activity testing in human virus models: HSV; format: cell-based, herpes simplex virus; conditions: for activity against virus: HSV, concentrations tested 1 μM and 100 μM; for inhibition % 100 μM / inhibition at 1 µM: Herpes (HSV); for inhibition at 1 µM: Homo sapiens
Experimental: as §1, §2

uninfected cells = experiment: Cytotoxicity in the parvovirus model; conditions: for effect on uninfected cells: parvovirus model
Stability = format: physicochemical; conditions: for stability in purification process and bioassays: typical conditions used in the purification process and in bioassays
Text: It is the methyl ester of the S2507 acid.

[3] = tested on: melanoma cell lines (MAL-ME-3M, M14, SK-MEL-5); experiment: NCI 60-cell line panel, melanoma cell lines; format: cell-based, human; conditions: some melanoma cell lines
Text: National Cancer Institute (NCI) tested both of the compounds in their 60-cell line panel (copy of their report available). NCI uses a 48-hour continuous drug exposure protocol. Cell viability and growth are estimated using a sulforhodamine B (SRB) protein assay. The screen is described on the web site: http://dtp.nci.nih.gov. […] However, a mean value of ED50 is at micro molar range against some melanoma cell lines (MAL-ME-3M, M14, SK-MEL-5).

mice = experiment: In vivo toxicity, preliminary dose range finding study; conditions: single i.p. 100, 50, 25, 12.5 and 6.25 mg/kg, two weeks
Experimental: The drug was injected once i.p. at doses 100, 50, 25, 12.5 and 6.25 mg/kg to two mice at each dose level. The mice were observed daily and weighed every 3 to 5 days for two weeks.

CBV5 virus = experiment: Activity testing in human virus models: CBV5; format: cell-based; conditions: for inhibition at 1 µM: CBV5, 1 μM; for activity against virus: CBV5 virus, concentrations tested 1 μM and 100 μM
Experimental: as §1, §2

[4] = tested on: control cultivations without virus; experiment: Cytotoxic effect on cells in the human virus tests (control cultivations without virus); conditions: for cytotoxic effect: 1 μM; for tolerance of control cultivations without virus: utilized drug concentrations (100 and 1 μM)
MES-SA = experiment: Typical cytotoxicity screen, MES-SA
human topoisomerase I = molecular target: T1, human topoisomerase I (Homo sapiens, UniProt P11387); experiment: Topoisomerase I drug screening kit; format: biochemical
T1 construct: purchased TopoGEN, Inc, Columbus, Ohio
T1 sequence (P11387 1-765): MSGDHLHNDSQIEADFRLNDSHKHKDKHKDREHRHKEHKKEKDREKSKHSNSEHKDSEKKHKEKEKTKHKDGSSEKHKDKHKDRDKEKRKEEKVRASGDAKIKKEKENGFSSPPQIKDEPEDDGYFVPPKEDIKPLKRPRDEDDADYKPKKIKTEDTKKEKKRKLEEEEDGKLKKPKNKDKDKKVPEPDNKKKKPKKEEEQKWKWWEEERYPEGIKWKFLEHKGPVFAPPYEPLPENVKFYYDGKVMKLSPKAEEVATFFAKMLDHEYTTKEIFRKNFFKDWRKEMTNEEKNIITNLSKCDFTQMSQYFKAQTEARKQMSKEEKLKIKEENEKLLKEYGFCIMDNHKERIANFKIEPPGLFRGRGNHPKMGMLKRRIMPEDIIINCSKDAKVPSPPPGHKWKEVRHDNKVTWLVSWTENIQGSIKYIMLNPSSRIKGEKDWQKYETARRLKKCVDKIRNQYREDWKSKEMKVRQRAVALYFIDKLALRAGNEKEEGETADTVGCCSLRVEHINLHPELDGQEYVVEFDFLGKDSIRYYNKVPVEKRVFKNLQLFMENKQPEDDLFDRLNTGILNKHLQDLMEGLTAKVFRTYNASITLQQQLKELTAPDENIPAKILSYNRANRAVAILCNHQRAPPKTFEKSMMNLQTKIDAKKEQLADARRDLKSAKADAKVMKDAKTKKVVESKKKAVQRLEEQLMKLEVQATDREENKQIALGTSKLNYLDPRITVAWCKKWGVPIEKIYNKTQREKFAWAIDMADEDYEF
Experimental: (§3) In order to understand the mechanism of anticancer activity, the inhibition of topoisomerases by S2502 was studied. The topoisomerase assays were done using Topoisomerase I and II drug screening kits with human topoisomerase I and II (p170 form) enzymes, respectively, according to the manufacturer's (TopoGEN, Inc, Columbus, Ohio) instructions. […] Minimal inhibitory concentrations were 25 μM against Topoisomerase 1 and 50 μM against Topoisomerase II.

[5] = tested on: cells used for CBV5 infection; experiment: Toxicity to cells used for CBV5 infection; format: cell-based; conditions: 100 μM
Experimental: as §1

[6] = molecular target: T2, human topoisomerase II (p170 form) (Homo sapiens, UniProt P11388); experiment: Topoisomerase II drug screening kit; format: biochemical
T2 construct: purchased TopoGEN, Inc, Columbus, Ohio
Experimental: as §3

T2 sequence (P11388 whole entry): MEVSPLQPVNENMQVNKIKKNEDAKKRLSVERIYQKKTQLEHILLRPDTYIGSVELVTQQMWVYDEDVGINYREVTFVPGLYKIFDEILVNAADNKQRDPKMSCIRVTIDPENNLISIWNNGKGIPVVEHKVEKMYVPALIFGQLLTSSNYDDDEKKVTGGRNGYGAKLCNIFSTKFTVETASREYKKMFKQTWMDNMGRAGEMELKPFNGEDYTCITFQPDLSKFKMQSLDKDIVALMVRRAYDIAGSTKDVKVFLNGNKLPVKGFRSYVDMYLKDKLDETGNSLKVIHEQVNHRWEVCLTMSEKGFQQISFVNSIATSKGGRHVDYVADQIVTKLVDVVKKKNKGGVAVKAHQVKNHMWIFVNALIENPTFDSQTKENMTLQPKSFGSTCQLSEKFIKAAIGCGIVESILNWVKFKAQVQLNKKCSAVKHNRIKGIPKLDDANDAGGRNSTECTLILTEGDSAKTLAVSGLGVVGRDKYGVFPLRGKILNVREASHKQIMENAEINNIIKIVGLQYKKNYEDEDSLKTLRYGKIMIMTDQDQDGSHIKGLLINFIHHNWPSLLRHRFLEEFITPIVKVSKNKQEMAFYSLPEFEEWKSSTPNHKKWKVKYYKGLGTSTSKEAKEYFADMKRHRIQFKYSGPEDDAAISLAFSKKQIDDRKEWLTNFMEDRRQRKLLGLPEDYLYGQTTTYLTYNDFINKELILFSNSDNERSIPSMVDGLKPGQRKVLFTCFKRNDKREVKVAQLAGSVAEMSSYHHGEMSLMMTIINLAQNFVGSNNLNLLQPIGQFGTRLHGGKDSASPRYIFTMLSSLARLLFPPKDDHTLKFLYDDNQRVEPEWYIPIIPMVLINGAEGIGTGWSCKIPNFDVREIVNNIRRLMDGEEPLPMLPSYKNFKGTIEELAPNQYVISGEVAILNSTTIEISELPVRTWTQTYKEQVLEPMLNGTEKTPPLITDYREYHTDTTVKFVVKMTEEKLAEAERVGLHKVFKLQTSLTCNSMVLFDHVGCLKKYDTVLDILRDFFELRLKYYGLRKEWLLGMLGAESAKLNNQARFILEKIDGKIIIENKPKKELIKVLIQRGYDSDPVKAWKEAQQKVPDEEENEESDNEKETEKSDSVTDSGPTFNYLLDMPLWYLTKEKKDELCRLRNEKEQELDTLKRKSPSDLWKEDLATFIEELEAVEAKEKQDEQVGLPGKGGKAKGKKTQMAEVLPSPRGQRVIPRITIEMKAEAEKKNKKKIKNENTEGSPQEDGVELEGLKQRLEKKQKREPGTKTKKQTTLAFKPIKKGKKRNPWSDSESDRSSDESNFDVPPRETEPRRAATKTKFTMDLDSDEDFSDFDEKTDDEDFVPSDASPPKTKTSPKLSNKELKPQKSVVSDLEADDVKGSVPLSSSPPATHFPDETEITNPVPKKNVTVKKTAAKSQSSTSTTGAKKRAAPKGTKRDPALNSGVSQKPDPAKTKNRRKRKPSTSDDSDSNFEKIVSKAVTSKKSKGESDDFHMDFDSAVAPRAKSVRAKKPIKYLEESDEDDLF

CC(=O)/C=C1/C=C2OC(CC(=O)O)Cc3cc4cccc(O)c4c(c32)O1 (stereo not drawn) [S2507]
activity against virus (adenovirus): active
inhibition at 1 µM (adenovirus): 90%
inhibition at 100 µM (adenovirus): 100%
toxicity to cells [1]: toxic
pKa (pKa): ~4.6
inhibition at 1 µM (influenza B): 100%
inhibition at 100 µM (influenza B): 100%
activity against virus (influenza B): active
activity against virus (cytomegalovirus (CMV)): only S2502 was active against CMV
inhibition at 1 µM (cytomegalovirus (CMV)): 0%
inhibition at 100 µM (cytomegalovirus (CMV)): 0%
activity against virus (RS virus): active
inhibition at 1 µM (RS virus): 100%
inhibition at 100 µM (RS virus): 100%
effect on parvovirus over concentration range ([2]; 5 nM to 500 nM): dose-activity correlation
antiviral activity against parvovirus (inhibition of infection of cells) [2]: remarkable antiviral activity; also recorded: partially inhibit the infection
anticancer activity (cytotoxicity screen) (MES-SA/Dx5): fail to show anticancer activity
activity against virus (herpes simplex (HSV)): active
inhibition % 100 μM (herpes simplex (HSV)): toxic
inhibition at 1 µM (herpes simplex (HSV)): 100%
cytotoxic properties (uninfected cells; highest concentration studied, 500 nM): did not exhibit cytotoxic properties
effect on uninfected cells (uninfected cells): without disturbing the uninfected cells
stability under normal laboratory conditions (Stability): stable and non-reactive
stability in purification process and bioassays (Stability): stable
activity against melanoma cell lines [3]: active against some melanoma cell lines
effect on the weight of the mice (mice): no effect
outer signs of general illness (mice): no outer signs of general illness were noticed
inhibition at 1 µM (CBV5 virus): 100%
inhibition at 100 µM (CBV5 virus; CBV5, 100 μM): 100%
activity against virus (CBV5 virus): active
cytotoxic effect [4]: not found
tolerance of control cultivations without virus [4]: tolerated well
solubility to water at pH 7: slightly soluble
anticancer activity (cytotoxicity screen) (MES-SA): fail to show anticancer activity

COC(=O)CC1Cc2cc3cccc(O)c3c3c2C(=C/C(=C/C(C)=O)O3)O1 (stereo not drawn) [S2502]
activity against virus (adenovirus): active
inhibition at 1 µM (adenovirus): 90%
inhibition at 100 µM (adenovirus): 100%
toxicity to cells [1]: toxic
inhibition at 1 µM (influenza B): 100%
inhibition at 100 µM (influenza B): 100%
activity against virus (influenza B): active
activity against virus (cytomegalovirus (CMV)): active
inhibition at 1 µM (cytomegalovirus (CMV)): 100%
inhibition at 100 µM (cytomegalovirus (CMV)): 100%
Minimal inhibitory concentration (human topoisomerase I): 25 µM (≈ 9.16 µg/mL)
activity against virus (RS virus): active
inhibition at 1 µM (RS virus): 100%
inhibition at 100 µM (RS virus): 100%
antiviral activity against parvovirus (inhibition of infection of cells) [2]: remarkable antiviral activity; also recorded: partially inhibit the infection
anticancer activity (cytotoxicity screen) (MES-SA/Dx5): fail to show anticancer activity
activity against virus (herpes simplex (HSV)): active
inhibition % 100 μM (herpes simplex (HSV)): toxic
inhibition at 1 µM (herpes simplex (HSV)): 100%
effect on uninfected cells (uninfected cells): without disturbing the uninfected cells
stability under normal laboratory conditions (Stability): stable and non-reactive
stability in purification process and bioassays (Stability): stable
toxicity to cells [5]: toxic
activity against melanoma cell lines [3]: active against some melanoma cell lines
inhibition at 1 µM (CBV5 virus): 100%
inhibition % 100 μM (CBV5 virus; CBV5, 100 μM): toxic
activity against virus (CBV5 virus): active
cytotoxic effect [4]: not found
tolerance of control cultivations without virus [4]: tolerated well
solubility to water at pH 7: not soluble
anticancer activity (cytotoxicity screen) (MES-SA): fail to show anticancer activity
Minimal inhibitory concentration [6]: 50 µM (≈ 18.3 µg/mL)
